Like-named read-outs stand apart in the source and are kept apart here.

We go through 1 molecule from patent US5514662A, “Use of amphotericin B derivatives as protease inhibitors” (priority 1991, dated 1996).

One data set has as its target T1, trypsin (Bos taurus, UniProt P00760).
T1 sequence (P00760 24-246): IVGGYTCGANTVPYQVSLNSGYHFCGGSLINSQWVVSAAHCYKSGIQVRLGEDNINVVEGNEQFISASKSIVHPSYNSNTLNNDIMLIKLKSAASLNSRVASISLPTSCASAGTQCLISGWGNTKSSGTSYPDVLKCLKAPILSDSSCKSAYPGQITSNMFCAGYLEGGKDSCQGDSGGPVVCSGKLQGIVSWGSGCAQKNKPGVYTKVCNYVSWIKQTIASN
The data set is described as follows: Inhibition of trypsin. The class given is biochemical.

Another data set deals with kallicrein. In words: Activity of DABF-AmB on various proteases: kallicrein. The conditions noted are these: 1 μM, results not shown. The format is biochemical. The procedure:
(§1) DABF-AmB was tested, at a concentration of 1 μM, on various proteases (papain, chymotrypsin, kallicrein, leucocyte elastase, cathopsin D and recombinant protease p10) under conditions and in the presence of substrates appropriate for each of the proteases tested.

The next data set deals with cathopsin D. In words: Activity of DABF-AmB on various proteases: cathopsin D. The conditions noted are these: 1 μM. The format is biochemical. The procedure: as §1
Another data set concerns the target T2, reverse transcriptase (Human immunodeficiency virus type 1 (BRU ISOLATE), UniProt P03367).
T2 construct: probably viral enzyme of LAV/BRU (LAI) culture supernatant
In words: Direct action on reverse transcriptase in vitro. The format is biochemical.

For another data set, the system named is Jurkat cells. In words: Cell viability of Jurkat cells. The following applies: concentrations above 100 μM. The format is cell-based, human. The source says:
Cell viability was estimated at the same time. […] It therefore appears that DABF-AmB inhibits the replication of HIV at doses which are not cytotoxic.

The test system of the next data set is HIV-1. In words: Reverse transcriptase activity in HIV-1 infected PBMCs. The class given is cell-based. On the procedure: The T cells (Jurkat and CEM) used are very permissive to HIV infection. They are cultured in RPMI 1640 medium supplemented with 10% foetal calf serum, 2 mM of glutamine and a mixture of penicillin and streptomycin. The peripheral blood mononuclear cells are obtained from blood from healthy donors, isolated on a Ficoll Hypaque gradient and stimulated with 10 μg/ml of phytohaemagglutinin A (PHA), for two days, in RPMI 1640 medium supplemented, prior to the infection by HIV, with amikacin and vancomycin (10 mg/ml), polybrene (1 mg/ml) and anti-interferon gamma serum (5 U/ml). After infection, the PBMCs are cultured (10^5 per well) in flat-bottomed 96-well plates in the same RPMI 1640 medium (200 μl per well).
The PBMCs cells (2×10^6 /ml) are infected with the same viruses and under the same conditions as the Jurkat or CEM cells. They are then washed and resuspended in fresh culture medium in flat-bottomed 96-well plates (10^5 cells per well in […]).
The reverse transcriptase activity is determined at the indicated times using the culture supernatant, according to the procedure described by REY et al., Biochem. Res. Comm. 121, 126-133 (1984).
PBMCs isolated from healthy individuals are infected with HIV-1. The production of antigen p24 as well as the reverse transcriptase activity can be detected in the supernatants of cultures infected 3 days after the infection. The maximum reverse transcriptase activity and p24 synthesis are observed between the 6th and 7th day, and the 5th and 6th day respectively. No cell death is observed at this time.
The infected PBMCs are treated continuously as described above for the Jurkat and CEM cells, using increasing concentrations of DABF-AmB.
The effect of DABF-AmB on the reverse transcriptase activity and on the secretion of p24 is evaluated on the 6th day.

Another data set has as its system PBMCs. The data set is described as follows: Cytotoxicity on PBMCs. The class given is cell-based, human. The conditions noted are these: concentrations up to 10^-3 M.
Another data set relates to human thymocytes. In words: Distribution of CD4 and CD8 cells in uninfected activated thymocytes. The class given is cell-based. The procedure:
Human thymuses were obtained during corrective heart surgery operations on 3 to 7 year old children. The tissues were cut into fragments and the red blood cells were removed by treating with […] buffer. After washing in PBS buffer, cellular suspensions were prepared in an RPMI 1640 medium containing 10% of human serum type […]. Dead cells were removed by passing over a sterile nylon wool column.
The cells were infected with HIV LAV/BRU as indicated above in the general procedures, and then re-inoculated in the presence of PHA, of anti-CD2 or anti-CD3 antibodies and of IL2 and cultured for 10 days at a rate of 1×10^7 cells/ml. After 10 days, viral production was evaluated by measuring the RT activity in the supernatants and the distribution of CD4/CD8 was evaluated by double fluorescence flow cytometry by means of FITC-labelled anti-CD4 antibodies (OKT4) and phycoerythrin-labelled anti-CD8 antibodies (OKT8). DABF-AmB was added to the cultures immediately after infection and maintained during the entire duration of the culture.

Another data set relates to HeLa-Ohio cells. In words: Cytotoxicity in HeLa-Ohio cells. The format is cell-based, human. The following applies: 20 μM for 4 weeks.

As a reminder, the inhibition is how much of the control response was suppressed. As for `C[C@@H]1[C@H](O)[C@@H](C)/C=C/C=C/C=C/C=C/C=C/C=C/C=C/[C@H](O[C@@H]2O[C@H](C)[C@@H](O)[C@H](NCC(=O)[C@@H](O)[C@@H]3OC(c4ccccc4)OC[C@H]3O)[C@@H]2O)C[C@@H]2O[C@](O)(C[C@@H](O)C[C@@H](O)[C@H](O)CC[C@@H](O)C[C@@H](O)CC(=O)O[C@H]1C)C[C@H](O)[C@H]2C(=O)O` (stereo partly drawn) [DABF-AmB, 1-deoxy-1-amino-4,6-O-benzylidene-D-fructosyl-AmB], the inhibition at 1 µM on trypsin (1 μM, FIG. 1, read-out: % inhibition of trypsin relative to a control without inhibitor) was more than 60%; on trypsin (10^-6 M, read-out: % of inhibition of trypsin), 50%. At 100 µM the inhibition against trypsin (10^-4 M) was 100%. Further, the “inhibition of trypsin (in words)” value against trypsin (10^-4 M) is on record as “Total inhibition”. Further, the inhibition at 10 µM on trypsin (10^-5 M) was found to be 95%; in the data set with HIV-1 (Human immunodeficiency virus 1, PBMC, 144 h, PBMCs, 10 μM, 6th day, N=3), 92 ± 4%. In addition, on trypsin (10^-7 M), testing at 0.1 µM gave an inhibition of 20%. In the data set on kallicrein, the inhibition of kallicrein result is given as “inhibits”. Moreover, in the data set with cathopsin D, the “inhibition of cathopsin D” value is recorded as “does not inhibit”. For the same molecule, the “direct action on reverse transcriptase activity” value on reverse transcriptase is recorded as “no direct action”. The cytotoxic effect result in the data set on Jurkat cells and in the data set with HeLa-Ohio cells was “no cytotoxic effect” each time. Further, the “increase in the anti-HIV action in PBMCs” value in the data set with HIV-1 (concentrations above 20 μM) is on record as “do not bring about a significant increase”. The “anti-HIV inhibition in PBMCs (in words)” value in the data set on HIV-1 (concentrations below 1 μM) is recorded as “only a low inhibition”. In the data set with PBMCs, the “cytotoxic effect on PBMCs” value is listed as “without cytotoxic effect”. In addition, in the data set on human thymocytes (even at 10 μM, PHA, anti-CD2 or anti-CD3 activated), the “distribution of the CD4 and CD8 cells in uninfected thymocytes” value is “does not significantly modify”. Further, the “CD4+ CD8+ population in uninfected thymocytes” value in the data set on human thymocytes (up to 10 μM) was “slight increase”.
